Test results as given in ChEMBL document CHEMBL1140846, “Convenient QSAR model for predicting the complexation of structurally diverse compounds with beta-cyclodextrins” (Bioorg Med Chem, 2009).

test: Binding affinity to beta cyclodextrin

SMILES	log Ks
Nc1ccccc1 [ANILINE]	1.6
CCNc1ccccc1	2.34
C[C@@H]1C[C@H]2[C@@H]3CCC4=CC(=O)C=C[C@]4(C)[C@@]3(F)[C@@H](O)C[C@]2(C)[C@@]1(O)C(=O)CO [DEXAMETHASONE]	3.65
CC(=O)Oc1ccc(C(C)C)cc1	2.88
Oc1cccc(I)c1	2.93
CC(C)CO [ISOBUTANOL]	1.62
c1ccc2c(c1)Nc1ccccc1S2 [PHENOTHIAZINE]	2.73
CC(=O)Oc1cccc(Cl)c1	2.44
CN(C)c1ccccc1	2.36
ClC(Cl)Cl [CHLOROFORM]	1.43
CCCCCCC(C)O (configuration not stated)	3.13
CC(C)(C)CO	2.71
Oc1cc(Cl)cc(Cl)c1	2.07
Oc1ccc(I)cc1	2.98
Cc1cccc(Nc2ccccc2C(=O)O)c1C [MEFENAMIC ACID]	2.49
OCCCCCCO [1,6-HEXANEDIOL]	1.69
O=C(O)c1ccc(O)cc1 [PARABEN]	2.2
Oc1cccc(Br)c1	2.51
C[C@]12C[C@H](O)[C@H]3[C@@H](CCC4=CC(=O)CC[C@@]43C)[C@@H]1CC[C@@H]2C(=O)CO [CORTICOSTERONE]	3.85
c1ccc2c(c1)Sc1ccccc1S2	3.57
Cc1ccc(Cl)c(Nc2ccccc2C(=O)O)c1Cl [MECLOFENAMIC ACID]	2.67
O=C(O)c1ccccc1Nc1cccc(C(F)(F)F)c1 [FLUFENAMIC ACID]	3.1
CC(=O)c1ccccc1 [ACETOPHENONE]	2.27

SMILES	log Ks
CCC(C)c1ccc(O)cc1 (configuration not stated)	4.18
O=[N+]([O-])c1ccc(Cl)cc1	2.15
COC1=CC(=O)C[C@@H](C)[C@]12Oc1c(Cl)c(OC)cc(OC)c1C2=O [GRISEOFULVIN]	1.47
CCC(C)(C)c1ccc(O)cc1	4.7
O=[N+]([O-])c1ccccc1 [NITROBENZENE]	2.04
CCOc1ccc(OC(C)=O)cc1	2.54
NC(=O)CCC/N=C(\c1ccc(Cl)cc1)c1cc(F)ccc1O [PROGABIDE]	2.53
Cc1cccc(O)c1 [METACRESOL]	1.98
CC(=O)OCC(=O)[C@@]1(O)CC[C@H]2[C@@H]3CCC4=CC(=O)C=C[C@]4(C)[C@H]3[C@@H](O)C[C@@]21C [PREDNISOLONE ACETATE]	3.76
CCCCC[C@H](O)/C=C/[C@H]1[C@H](O)CC(=O)[C@@H]1C/C=C\CCCC(=O)O [DINOPROSTONE]	3.09
OCCCO [1,3-PROPANEDIOL]	0.67
c1ccc2ncccc2c1 [QUINOLINE]	2.12
CCC1(CCC(C)C)C(=O)NC(=O)NC1=O [AMOBARBITAL]	3.07
OC1CCC1 [CYCLOBUTANOL]	1.18
ClC(Cl)(Cl)Cl [CARBON TETRACHLORIDE]	2.2
CC(C(=O)O)c1ccc(-c2ccccc2)c(F)c1 (configuration not stated) [FLURBIPROFEN]	3.69
C[C@]12C=CC(=O)C=C1CC[C@@H]1[C@@H]2[C@@H](O)C[C@@]2(C)[C@H]1CC[C@]2(O)C(=O)CO [PREDNISOLONE]	3.56
Ic1ccc(I)cc1	3.17
CCNCC [DIETHYLAMINE]	1.36
Oc1cc(Br)cc(Br)c1	2.56
Cc1cc(NS(=O)(=O)c2ccc(N)cc2)nc(C)n1 [SULFISOMIDINE]	2.1
Cc1ccnc(NS(=O)(=O)c2ccc(N)cc2)n1 [SULFAMERAZINE]	1.97
CCCCc1cccc(O)c1	3.76

SMILES	log Ks
O=C1CN=C(c2ccccc2)c2cc([N+](=O)[O-])ccc2N1 [NITRAZEPAM]	1.97
CC(=O)Oc1ccc(C(C)(C)C)cc1	3.85
CC(=O)Oc1cccc(C(C)C)c1	3.36
CC(=O)Oc1cccc(C)c1	2.21
CC#N [ACETONITRILE]	-0.27
OCCc1ccccc1 [PHENYLETHYL ALCOHOL]	2.15
CCCc1cccc(O)c1	3.28
O=Cc1ccccc1 [BENZALDEHYDE]	1.78
CCOc1cccc(O)c1 [1-hydroxy-3-ethoxybenzene]	2.35
CCC1(C2=CCCCC2)C(=O)NC(=O)NC1=O [CYCLOBARBITAL]	2.71
CC(C)Oc1ccc(O)cc1	2.86
O=C(O)CC1CC2CCC1C2 (configuration not stated)	3.59
CCc1ccc(OC(C)=O)cc1	2.83
CC=O	-0.64
CCCCc1cccc(OC(C)=O)c1	3.66
CCC(=O)c1cccc(O)c1	2.61
CCCc1ccc(OC(C)=O)cc1	3.15
C#Cc1ccccc1	2.36
COc1cc(NS(=O)(=O)c2ccc(N)cc2)ncn1 [SULFAMONOMETHOXINE]	2.48
OCc1ccc(O)cc1 [PARAHYDROXYBENZYL ALCOHOL]	2.16
OCCO [ETHYLENE GLYCOL]	-0.19
CC(=O)Oc1ccc(F)cc1	2.11
Nc1ccc(S(=O)(=O)Nc2ncccn2)cc1 [SULFADIAZINE]	2.52

SMILES	log Ks
CC(C)C(C)O (configuration not stated)	1.92
CCCCc1ccc(OC(C)=O)cc1	3.62
Oc1cccc(F)c1	1.7
C[C@H](CCC(=O)O)[C@H]1CC[C@H]2[C@@H]3[C@@H](O)C[C@@H]4C[C@H](O)CC[C@]4(C)[C@H]3CC[C@]12C [URSODIOL]	4.51
Cc1cccc(N(C)C(=S)Oc2ccc3ccccc3c2)c1 [TOLNAFTATE]	3.83
CCCCCc1ccc(OC(C)=O)cc1	3.8
O=C(O)/C=C/c1ccc(O)cc1 [COUMARIC ACID]	2.83
NS(=O)(=O)c1cc2c(cc1C(F)(F)F)NC(Cc1ccccc1)NS2(=O)=O (configuration not stated) [BENDROFLUMETHIAZIDE]	1.9
CCCC(C)C1(CC)C(=O)NC(=O)NC1=O (configuration not stated) [PENTOBARBITAL]	3.01
CCCCNC(=O)NS(=O)(=O)c1ccc(N)cc1 [CARBUTAMIDE]	2.29
CC(=O)Oc1cccc(C#N)c1	1.49
CCc1ccccc1 [ETHYLBENZENE]	2.59
CC1(C)O[C@@H]2C[C@H]3[C@@H]4CCC5=CC(=O)C=C[C@]5(C)[C@@]4(F)[C@@H](O)C[C@]3(C)[C@]2(C(=O)CO)O1 [TRIAMCINOLONE ACETONIDE]	3.51
c1ccc2c(c1)sc1ccccc12 [DIBENZOTHIOPHENE]	3.48
CCCCCCCO [1-HEPTANOL]	2.85
CCOC(=O)c1ccccc1 [ETHYL BENZOATE]	2.73
c1ccc2c(c1)cnc1ccccc12 [PHENANTHRIDINE]	2.57
CCCCc1ccc(O)cc1	3.97
CCC1(c2ccccc2)C(=O)NC(=O)N(C)C1=O (configuration not stated) [MEPHOBARBITAL]	3.16
CC(=O)c1ccc(O)cc1 [4-HYDROXYACETOPHENONE]	2.18
Brc1ccc(Br)cc1	2.97
c1ccc2nc3ccccc3cc2c1 [ACRIDINE]	2.33
CCc1ccc(O)cc1	2.69

SMILES	log Ks
Cc1cccc(/C=C/C(=O)O)c1	2.93
O=C(O)Cc1ccccc1 [PHENYLACETIC ACID]	2.1
CC(=O)c1cccc(O)c1	2.06
O=Cc1ccc(O)cc1 [4-HYDROXYBENZALDEHYDE]	1.75
C1CCOC1 [TETRAHYDROFURAN]	1.47
COc1ccc(OC(C)=O)cc1	2.45
C[C@]12CCC(=O)C=C1CC[C@@H]1[C@@H]2[C@@H](O)C[C@@]2(C)[C@H]1CC[C@]2(O)C(=O)CO [HYDROCORTISONE]	3.6
CC(=O)Oc1cccc(F)c1	1.91
CC(=O)Oc1ccc(Br)cc1	2.68
Cc1ccc(/C=C/C(=O)O)cc1	2.65
CC1=CC(=O)c2ccccc2C1=O [MENADIONE]	2.27
CCOC(=O)c1ccc(N)cc1 [BENZOCAINE]	2.69
CCOc1ccc(O)cc1 [1-hydroxy-4-ethoxybenzene]	2.33
CCCC(C)(C)O	1.99
C=CCC1(CC=C)C(=O)NC(=O)NC1=O [ALLOBARBITAL]	1.98
C(=C\c1ccccc1)/CN1CCN(C(c2ccccc2)c2ccccc2)CC1 [CINNARIZINE]	3.64
CCC1(c2ccccc2)C(=O)NC(=O)NC1=O [PHENOBARBITAL]	3.22
CCCCC(C)O (configuration not stated) [2-HEXANOL]	1.98
Ic1ccccc1 [IODOBENZENE]	2.93
CN1C(=O)CN=C(c2ccccc2)c2cc([N+](=O)[O-])ccc21 [NIMETAZEPAM]	1.73
